Measured values from patent publication US6552062B1, “Indazole derivatives with 5-HT2 receptor activity” (Vernalis Research Limited, priority 1998, dated 2003).
Structures can show the parent of a compound that is named as a salt.

Key:
[1] = target: T1, human 5-HT2B receptors (Homo sapiens, UniProt P41595); experiment: Binding to 5-HT2B receptor, [3H]-5-HT radioligand, Method (b); settings: human 5-HT2B receptors in a CHO cell line, read-out: Method (b) Ki (2B)
T1 construct: expressed in transfected cells; host or cells: CHO cell line
Experimental: (§1) The binding of compounds of formula I to serotonin receptors was determined in vitro by standard methods. The preparations were investigated in accordance with the assays given hereinafter.
Method (b): For the binding to the 5-HT2B receptor the 5-HT2B receptors were radiolabeled with [^3H]-5-HT. The affinity of the compounds for human 5-HT2B receptors in a CHO cell line was determined according to the procedure of K. Schmuck, C. Ullmer, P. Engels and H. Lubbert, FEBS Lett., 1994, 342, 85-90.

[2] = target: T2, human 5-HT2A receptors (Homo sapiens, UniProt P28223); experiment: Functional activity, FLIPR calcium assay, CHO cells expressing human 5-HT2A; format: cell-based; settings: for EC50: CHO cells, FLIPR, Fluo-3-AM, read-out: h5-HT2A EC50; for h5-HT2A Relative Efficacy (%): maximum fluorescent signal relative to 10 μM 5-HT (defined as 100%)
T2 construct: expressed in transfected cells; host or cells: CHO cells
Experimental: (§2) The functional activity of compounds of formula (I) was assayed using a Fluorimetric Imaging Plate reader (FLIPR). CHO cells expressing the human 5-HT2C or human 5-HT2A receptors were counted and plated into standard 96 well microtitre plates on the day before testing to give a confluent monolayer. The cells were then dye loaded with the calcium sensitive dye, Fluo-3-AM. Unincorporated dye was removed using an automated cell washer to leave a total volume of 100 μL/well of assay buffer (Hanks balanced salt solution containing 20 mM Hepes and 2.5 mM probenecid). The drug (dissolved in 50 μL of the assay buffer) was added at a rate of 70 μL/sec to each well of the FLIPR 96 well plate during fluorescence measurements. The measurements were taken at 1 sec intervals and the maximum fluorescent signal was measured (approx 10-15 secs after drug addition) and compared with the response produced by 10 μM 5-HT (defined as 100%) to which it was expressed as a percentage response (relative efficacy). Dose response curves were constructed using Graphpad Prism (Graph Software Inc.).

[3] = target: T3, human 5-HT2C (Homo sapiens, UniProt P28335); experiment: Functional activity, FLIPR calcium assay, CHO cells expressing human 5-HT2C; format: cell-based; design: expressed in transfected cells; host or cells: CHO cells; settings: for EC50: CHO cells, FLIPR, Fluo-3-AM, read-out: h5-HT2C EC50; for Emax: CHO, maximum fluorescent signal relative to 10 μM 5-HT (defined as 100%), read-out: h5-HT2C Relative Efficacy (%)
T3 sequence (P28335 33-458): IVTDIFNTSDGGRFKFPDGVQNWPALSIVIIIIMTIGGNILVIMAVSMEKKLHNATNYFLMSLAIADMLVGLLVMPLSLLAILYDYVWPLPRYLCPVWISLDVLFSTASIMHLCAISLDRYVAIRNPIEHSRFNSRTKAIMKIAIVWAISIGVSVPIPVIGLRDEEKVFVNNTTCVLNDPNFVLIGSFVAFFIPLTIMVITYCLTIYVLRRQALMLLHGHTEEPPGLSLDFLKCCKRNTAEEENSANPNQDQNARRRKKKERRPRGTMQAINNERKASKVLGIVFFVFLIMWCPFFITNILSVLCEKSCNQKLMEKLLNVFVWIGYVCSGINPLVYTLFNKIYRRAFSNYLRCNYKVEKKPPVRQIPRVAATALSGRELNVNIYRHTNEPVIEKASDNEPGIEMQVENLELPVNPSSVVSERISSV
Experimental: as §2

[4] = target: T3, human 5-HT2C; experiment: Binding to 5-HT2C receptor, [3H]-5-HT radioligand, Method (a); design: expressed in transfected cells; host or cells: CHO cell line; settings: 5-HT2C receptors in a CHO cell line, read-out: Method (a) Ki (2C)
Experimental: as §1
Method (a): For the binding to the 5-HT2C receptor the 5-HT2C receptors were radiolabeled with [^3H]-5-HT. The affinity of the compounds for 5-HT2C receptors in a CHO cell line was determined according to the procedure of D. Hoyer, G. Engel and H. O. Kalkman, European J Pharmacol., 1985, 118, 13-23.

T1 sequence (P41595 whole entry): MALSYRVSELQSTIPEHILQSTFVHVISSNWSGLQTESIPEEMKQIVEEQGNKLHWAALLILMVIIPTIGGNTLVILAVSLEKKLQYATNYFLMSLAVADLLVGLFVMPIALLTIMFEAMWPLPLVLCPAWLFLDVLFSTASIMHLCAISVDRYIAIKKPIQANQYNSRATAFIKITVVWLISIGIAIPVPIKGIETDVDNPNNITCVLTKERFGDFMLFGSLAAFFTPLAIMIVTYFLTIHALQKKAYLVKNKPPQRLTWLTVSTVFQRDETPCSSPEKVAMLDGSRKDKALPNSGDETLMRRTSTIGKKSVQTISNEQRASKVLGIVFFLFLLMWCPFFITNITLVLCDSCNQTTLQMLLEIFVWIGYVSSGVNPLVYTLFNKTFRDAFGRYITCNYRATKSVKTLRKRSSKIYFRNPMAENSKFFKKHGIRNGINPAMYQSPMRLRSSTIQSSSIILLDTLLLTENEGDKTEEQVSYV
T2 sequence (P28223 whole entry): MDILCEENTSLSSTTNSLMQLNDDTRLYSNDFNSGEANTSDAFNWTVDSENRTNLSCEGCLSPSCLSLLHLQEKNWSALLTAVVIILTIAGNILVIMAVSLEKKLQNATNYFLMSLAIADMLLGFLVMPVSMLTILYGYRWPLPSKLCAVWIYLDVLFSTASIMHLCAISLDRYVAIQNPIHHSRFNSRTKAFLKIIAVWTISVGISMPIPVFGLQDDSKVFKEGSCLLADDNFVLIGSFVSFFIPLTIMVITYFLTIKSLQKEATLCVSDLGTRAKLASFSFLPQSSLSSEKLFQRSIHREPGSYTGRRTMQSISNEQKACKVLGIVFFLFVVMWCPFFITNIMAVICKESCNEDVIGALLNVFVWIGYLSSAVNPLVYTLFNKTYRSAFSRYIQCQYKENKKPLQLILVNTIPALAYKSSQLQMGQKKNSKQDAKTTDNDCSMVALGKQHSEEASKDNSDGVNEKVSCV

SMILES	Ki [1] [nM]	EC50 [2] [nM]	h5-HT2A Relative Efficacy (%) [2] [%]	EC50 [3] [nM]	Emax [3] [%]	Ki [4] [nM]	melting point [°C]
Cc1nn(C[C@H](C)N)c2cc(Cl)c(F)cc12 [Example 4, (S)-1-(6-Chloro-5-fluoro-3-methylindazol-1-yl)-2-propylamine Fumarate]	26	137	65	48	76	75	
CCc1nn(C[C@H](C)N)c2cc(SC)ccc12 [Example 8, (S)-1-(3-Ethyl-6-methylthioindazol-1-yl)-2-propylamine Fumarate]	47	285	48	8	81	37	
Cc1nn(CC(C)N)c2ccccc12 (racemic) [Example 1, (RS)-1-(3-Methylindazol-1-yl)-2-propylamine Fumarate]	241			960	55	431	
COc1ccc2c(C)nn(C[C@H](C)N)c2c1 [Example 2, (S)-1-(6-Methoxy-3-methylindazol-1-yl)-2-propylamine Fumarate]	135	108	59	44	74	210	
CCc1nn(C[C@H](C)N)c2cc(F)ccc12 (as salt: fumarate) [Example 6, (S)-1-(3-Ethyl-6-fluoroindazol-1-yl)-2-propylamine Fumarate]							143 to 145
CCc1nn(C[C@H](C)N)c2cc(F)ccc12 [Example 6, (S)-1-(3-Ethyl-6-fluoroindazol-1-yl)-2-propylamine Fumarate]		288	32	52	47		
COc1ccc2c(C)nn(C[C@H](C)N)c2c1 (as salt: fumarate) [Example 2, (S)-1-(6-Methoxy-3-methylindazol-1-yl)-2-propylamine Fumarate]							180 to 181
Cc1nn(C[C@H](C)N)c2cc(Cl)c(F)cc12 (as salt: fumarate) [Example 4, (S)-1-(6-Chloro-5-fluoro-3-methylindazol-1-yl)-2-propylamine Fumarate]							158 to 159
CCc1nn(C[C@H](C)N)c2cc(C(F)(F)F)ccc12 [Example 5, (S)-1-(3-Ethyl-6-trifluoromethylindazol-1-yl)-2-propylamine Fumarate]				877	73		
CCc1nn(C[C@H](C)N)c2cc(SC)ccc12 (as salt: fumarate) [Example 8, (S)-1-(3-Ethyl-6-methylthioindazol-1-yl)-2-propylamine Fumarate]							147 to 149
CCc1nn(C[C@H](C)N)c2cc(Br)ccc12 (as salt: fumarate) [Example 7, (S)-1-(6-Bromo-3-ethylindazol-1-yl)-2-propylamine Fumarate]							148 to 150
Cc1nn(C[C@H](C)N)c2cc(F)c(F)cc12 (as salt: fumarate) [Example 3, (S)-1-(5,6-Difluoro-3-methylindazol-1-yl)-2-propylamine Fumarate]							160 to 161
Cc1nn(C[C@H](C)N)c2cc(F)c(F)cc12 [Example 3, (S)-1-(5,6-Difluoro-3-methylindazol-1-yl)-2-propylamine Fumarate]	63	152	50	84	67	140	
CCc1nn(C[C@H](C)N)c2cc(Br)ccc12 [Example 7, (S)-1-(6-Bromo-3-ethylindazol-1-yl)-2-propylamine Fumarate]		739	39	88	69		
